Here are results for nine compounds from patent US7803792B2, “Quaternary ammonium compounds” (Asahi Kasei Pharma Corporation, priority 2002, dated 2010).

SMILES strings stand for the structures.

Assay [1] deals with Rat model loaded with high cholesterol diet. In words: Blood cholesterol lowering effect in rats fed on a high cholesterol diet (Test Example 1). The class given is in vivo. The following applies: treatment model; 0.3 mg/kg at a time, oral twice a day; control group = 100%. How it is done: Blood Cholesterol Lowering Effect in Rats Fed on a High Cholesterol Diet
In this test example, blood cholesterol level lowering effect in rats fed on a high cholesterol diet was tested according to the method described in J. Lipid, Res., 1995, 36, 1098-1105.
That is, a diet containing 0.4% cholesterol and 0.5% of bile acid was given to 7 to 9 weeks old SD (IGS) male rats for 5 days before the test to increase the blood cholesterol level. […] Cholestimide (trade name: CHOLEBINE GRANULE 70% manufactured by MITSUBISHI TOKYO PHARMACEUTICALS, INC.), which is an anion exchange resin, was suspended in distilled water while the test compound was either dissolved or suspended in distilled water. These were forcibly orally administered twice a day every day from the day of beginning of the test (each n=8). After 3 hours from the administration of the drug on the last day of the test, a blood sample was taken from a jugular vein pool and serum cholesterol level was measured to study the effect of the test compound. Further, as a control group, a group (n=8) fed on only high cholesterol diet and given distilled water (1 ml/kg) was prepared and the same test procedure was followed. A commercially available kit was used for the measurement of total cholesterol and HDL cholesterol. The value obtained by subtracting an HDL cholesterol value from the total cholesterol value was taken as an LDL+VLDL cholesterol value. Assuming the LDL+VLDL cholesterol value of the control group, for which the test compound was not used, as 100%, the rate of decrease (percentage of decrease) of LDL +VLDL cholesterol value when a fixed amount of the test compound was used, was determined.

Assay [2] has as its system Cholic acid-loaded rat model. The experiment in a line: Bile acid-decreasing effect in portal vein of rats loaded with cholic acid (Test Example 2). The class given is in vivo. The following applies: 0.1 mg/kg oral with cholic acid 200 mg/kg; portal vein blood after 2 hours; HCO-60 0.1%. The method, boiled down:
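SD (IGS) rats aged 7 to 9 weeks were fasted from the day before testing, then given cholic acid (200 mg/kg) together with the test compound by forced oral dosing. Portal vein blood was drawn 2 hours later, and total serum bile acid was measured with a commercial kit (n=6). The percent decrease was calculated relative to a cholic acid-only control group set at 100%.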

Assay [3] relates to bile duct partial ligation model. The experiment in a line: Cholestasis-caused hepatopathy model, bile duct partial ligation, protocol A (Test Example 5). The class given is in vivo, rat. The following applies: 1 mg/kg twice a day 3.5 days, 1% HCO60, average ± standard error; for ALT: controls 417 ± 185 / 384 ± 156; for AST: controls 589 ± 221 / 643 ± 125; for ALP: controls 2318 ± 583 / 2204 ± 327. How it is done:
“Cholestasis-Caused Hepatopathy” Model (Bile Duct Partial Ligation Model)
The “cholestasis-caused hepatopathy” model by partial ligation surgery of bile duct in this test example was handled by referring to the method by Kanno et al. [Kanzo (Liver) 43 Suppl (1): A126, 2002].
That is, the abdomen of a 7 to 10 weeks old SD (IGS) male rat was cut open under anesthesia with pentobarbital and partial ligation surgery of the bile duct was carried out. A blood sample was taken from the femoral vein before the surgery and this was taken as pre-administration value. The test compound and 200 mg/kg of bile acid were forcibly orally administered twice a day for 3.5 days from the next day of the surgery (protocol A). The test compound and 200 mg/kg of bile acid were forcibly orally administered twice a day for 3.5 days without carrying out the partial ligation surgery (protocol B). In both the cases, the test compound was dissolved or suspended in distilled water or an aqueous solution of 1% HCO60 (manufactured by NIPPON CHEMICALS COMPANY, LTD.). […] Moreover, to consider the influence of the surgery, a pseudo operation group (a Sham group) was established as necessary. After 6 hours from the administration of the drug on the last day of the test, a blood sample was taken from the abdominal aorta and AST (GOT), ALT (GPT), and ALP in the blood were measured by using a measurement kit (GOTII-HA TEST WAKO, GPTII-HA TEST WAKO, and ALKALINE PHOSPHER-HA TEST WAKO respectively, all manufactured by WAKO PURE CHEMICAL […], LTD.) with an auto analyzer (NITTECH ANALYZER SUPER Z818).

Turning to `CCCCC1(CCCC)CS(=O)(=O)c2ccc(N(C)C)cc2C(c2cccc(NC(=S)CCCCC[N+]34CCC(CC3)CC4)c2)N1.[Br-]` (centres unmarked) [Example 1, 1-{5-[3-(3,3-Dibutyl-7-dimethylamino-1,1-dioxo-2,3,4,5-tetrahydro-1,4-benzothiazepin-5-yl)phenylthiocarbamoyl]pentyl}-1-azoniabicyclo[2.2.2]octane bromide], the “Rate of decrease (%) of LDL + VLDL” value in assay [1] worked out at 49%.
Regarding `CCCCC1(CCCC)CS(=O)(=O)c2ccc(N(C)C)cc2C(c2cccc(NC(=S)Nc3ccc(C[N+](C)(C)Cc4ccccc4)cc3)c2)N1.[Br-]` (centres unmarked) [Example 3440], the “Rate of decrease (%) of bile acid” value in assay [2] worked out at 26%. Also, the “Rate of decrease (%) of LDL + VLDL” value in assay [1] is given as 36%. In assay [3], this compound came in with an ALT of 155 ± 38 IU/L, an AST of 309 ± 37 IU/L and an ALP of 1614 ± 189 IU/L.
Regarding `C#CC[N+](C)(Cc1ccccc1)Cc1ccc(NC(=S)Nc2cccc(C3NC(CCCC)(CCCC)CS(=O)(=O)c4ccc(N(C)C)cc43)c2)cc1` (centres unmarked) [Example 3448], the “Rate of decrease (%) of bile acid” value in assay [2] came out at 25%. Further, the “Rate of decrease (%) of LDL + VLDL” value in assay [1] came out at 20%. Besides, in assay [3], the ALT worked out at 181 ± 79 IU/L, the AST worked out at 352 ± 210 IU/L and the ALP was determined as 1148 ± 332 IU/L.
Consider `CCCCC1(CCCC)CS(=O)(=O)c2ccc(N(C)C)cc2C(c2cccc(NC(=S)Nc3ccc(C[N+]4(Cc5ccccc5)CCC(O)CC4)cc3)c2)N1.[Br-]` (centres unmarked) [Example 3605], for which, in assay [2], the “Rate of decrease (%) of bile acid” value was 24%. The “Rate of decrease (%) of LDL + VLDL” value in assay [1] is recorded as 28%. Moreover, in assay [3], the ALT is 258 ± 219 IU/L, the AST is on record as 487 ± 382 IU/L and the ALP was 1489 ± 533 IU/L.
On to `CCCCC1(CCCC)CS(=O)(=O)c2ccc(N(C)C)cc2C(c2cccc(NC(=S)Nc3ccc(C[N+]45CCC(c6ccccc6)(CC4)CC5)cc3)c2)N1.[Br-]` (centres unmarked) [Example 3696], for which, in assay [2], the “Rate of decrease (%) of bile acid” value was 13%. Further, the “Rate of decrease (%) of LDL + VLDL” value in assay [1] worked out at 25%. Besides, in assay [3], the ALT is 191 ± 21 IU/L, the AST is 325 ± 87 IU/L and the ALP amounted to 1209 ± 125 IU/L.
Taken in the same sequence, the figures for `CCCCC1(CCCC)CS(=O)(=O)c2ccc(N(C)C)cc2C(c2cccc(NC(=S)Nc3ccc(C[n+]4ccc(C(C)(C)C)cc4)cc3)c2)N1.[Br-]` (centres unmarked) [Example 3713] were 32%, 41%, 163 ± 96 IU/L, 280 ± 61 IU/L and 1008 ± 289 IU/L.
With `CCCCC1(CCCC)CS(=O)(=O)c2ccc(N(C)C)cc2C(c2cccc(NC(=S)Nc3ccc(C[n+]4cccc(CCCO)c4)cc3)c2)N1.[Br-]` (centres unmarked) [Example 3747], the “Rate of decrease (%) of bile acid” value in assay [2] was determined as 40%. Further, in assay [1], the “Rate of decrease (%) of LDL + VLDL” value is 48%. In addition, in assay [3], the ALT is 146 ± 70 IU/L, the AST is recorded as 245 ± 81 IU/L and the ALP was found to be 960 ± 259 IU/L.
`CCCCC1(CCCC)CS(=O)(=O)c2ccc(N(C)C)cc2C(c2cccc(NC(=S)Nc3ccc(C[n+]4cccc(CCC(=O)OC)c4)cc3)c2)N1.[Br-]` (centres unmarked) [Example 3752]: the “Rate of decrease (%) of bile acid” value in assay [2] was 42%. The “Rate of decrease (%) of LDL + VLDL” value in assay [1] is 50%. For the same compound, in assay [3], the ALT stood at 165 ± 47 IU/L, the AST is reported as 358 ± 87 IU/L and the ALP was 1112 ± 184 IU/L.
Regarding `CCCCC1(CCCC)CS(=O)(=O)c2ccc(N(C)C)cc2C(c2cccc(NC(=S)Nc3ccc(C[n+]4ccccc4CCC)cc3)c2)N1.[Br-]` (centres unmarked) [Example 5408], the “Rate of decrease (%) of bile acid” value in assay [2] came out at 35%. Besides, in assay [1], the “Rate of decrease (%) of LDL + VLDL” value turned out to be 43%. Further, in assay [3], the ALT worked out at 197 ± 45 IU/L, the AST was found to be 198 ± 65 IU/L and the ALP was 1005 ± 102 IU/L.
